Measurements from patent publication US6521620B1, “Bicyclic compounds capable of inhibiting tyrosine kinases of the epidermal growth factor receptor family” (Warner-Lambert Company, priority 1994, dated 2003).
Where a name gives a salt, the structure may show the parent alone. Read-outs that look alike come from different tables or passages of the source.

Legend:
[1] = target: T1, EGF receptor (Homo sapiens, UniProt P00533); assay: Inhibition of EGF-induced autophosphorylation in A431 epidermoid carcinoma cells; type: cell-based
T1 construct: EGF receptor autophosphorylation in A431 human epidermoid carcinoma; endogenous in cells; host or cells: A431 human epidermoid carcinoma cells (ATCC)
Experimental: (§1) Cells were grown to 100% confluency in 100 mm Petrie dishes (Corning). After the cells were treated for 5 minutes with either EGF (epidermal growth factor), PDGF, or bFGF (basic fibroblast growth factor) (20 ng/ml) or 1 ml of conditioned media from MDA-MB-231 cells, the media was removed and the monolayer scraped into 1 ml of ice cold lysis buffer (50 mM Hepes, pH 7.5, 150 mM NaCl, 10% glycerol, 1% triton X-100, 1 mM EDTA, 1 mM EGTA, 10 mM sodium pyrophosphate, 30 mM p-nitrophenyl phosphate, 1 mM orthovanadate, 50 mM sodium fluoride, 1 mM phenylmethylsulfonylfluoride, 10 μg/ml of aprotinin, and 10 μg/ml of leupeptin). The lysate was transferred to a microfuge tube (small centrifuge that holds 1-2 ml plastic centrifuge tubes), allowed to sit on ice 15 minutes and centrifuged 5 minutes at 10,000×g. The supernatant was transferred to a clean microfuge tube and 5 μg of antibody was added to designated samples. The tubes were rotated for 2 hours at […] after which 25 μl of protein A sepharose was added and then rotation continued for at least 2 more hours. The protein A separose was washed 5 times with 50 mM Hepes, pH 7.5, 150 mM NaCl, 10% glycerol and 0.02% sodium azide. […] The extract were transferred to a microfuge tube and heated to 100° C. for 5 minutes. […] Proteins in the gel were electrophoretically transferred to nitrocellulose and the membrane was washed once in 10 mM Tris buffer, pH 7.2, 150 mM NaCl, 0.01% Azide (TNA) and blocked overnight in TNA containing 5% bovine serum albumin and 1% ovalbumin (blocking buffer). The membrane was blotted for 2 hours with the primary antibody (1 μg/ml in blocking buffer) and then washed 2 times sequentially in TNA, TNA containing 0.05% Tween-20 and 0.05% Nonidet P-40 (commercially available detergent) and TNA.

[2] = target: T2, Human EGF receptor tyrosine kinase (Homo sapiens, UniProt P00533); assay: EGF receptor tyrosine kinase inhibition (phosphorylation of PLC-gamma 1 derived peptide); type: biochemical
T2 construct: isolated from A431 human epidermoid carcinoma cells which overexpress EGF receptor; endogenous in cells; host or cells: A431 human epidermoid carcinoma cells; purified from the lysate on wheat germ agglutinin sepharose
Experimental: Purification of Epidermal Growth Factor Receptor Tyrosine Kinase—Human EGF receptor tyrosine kinase was isolated from A431 human epidermoid carcinoma cells which overexpress EGF receptor by the following methods. Cells were grown in roller bottles in 50% Delbuco's Modified Eagle and 50% HAM F-12 nutrient media (Gibco) containing 10% fetal calf serum. Approximately 10^9 cells were lysed in two volumes of buffer containing 20 mM 2-(4N-[2-hydroxyethyl]piperazin-1-yl)ethanesulfonic acid (hepes), pH 7.4, 5 mM ethylene glycol bis(2-aminoethyl ether) N,N,N′,N′-tetraacetic acid, 1% Triton X-100, 10% glycerol, 0.1 mM sodium orthovanadate, 5 mM sodium fluoride, 4 mM pyrophosphate, 4 mM benzamide, 1 mM dithiothreitol, 80 μg/mL aprotinin, 40 μg/mL leupeptin and 1 mM phenylmethylsulfonyl fluoride. After centrifugation at 25,000×g for 10 minutes, the supernatant was equilibrated for 2 h at 4° C. with 10 mL of wheat germ agglutinin sepharose that was previously equilibrated with 50 mM Hepes, […], 0.1% Triton X-100 and 150 mM NaCl, pH 7.5, (equilibration buffer). Contaminating proteins were washed from the resin with 1 M NaCl in equilibration buffer, and the enzyme was eluted with 0.5 M N-acetyl-1-D-glucosamine in equilibration buffer, followed by 1 mM urea. The enzyme was eluted with 0.1 mg/ml EGF.
The reaction was terminated by the addition of 2 mL of […] phosphoric acid and passed through a 2.5 cm phosphocellulose filter disc to bind the peptide. The filter was washed five times with 75 mM phosphoric acid and placed in a vial along with 5 mL of scintillation fluid (Ready gel Beckman).

[3] = tested on: erbB-2, 3, 4; assay: Inhibition of conditioned media-induced autophosphorylation in SK-BR-3 breast tumor cells; type: cell-based, human
Experimental: as §1

[4] = tested on: MDA-468 - Human breast carcinoma overexpressing the EGF receptor; assay: cells; conditions: read-out: Antiproliferative IC50 (nM)
Experimental: To obtain conditioned medium, MDA-MB-231 cells were grown to confluency in an 850 cm^2 roller bottle and the medium-replaced with 50 ml of serum-free medium. After 3 days the conditioned medium was removed, frozen down in aliquots and used as a heregulin source to stimulate erbB-2, 3, 4.
Cells (2×10^4) were seeded in 24-well plates (1.7×1.6 cm, flat bottom) in two mls of medium with or without various concentrations of drug. Plates were incubated for 3 days at 37° in a humidified atmosphere containing 5% CO2 in air. Cell growth was determined by cell count with a Coulter Model AM electronic cell counter (Coulter Electronics, Inc., Hialeah, Fla.).

[5] = tested on: B104-1-1 - NIH-3T3 fibroblasts transfected by the neu oncogene; assay: Growth inhibition assay (antiproliferative), B104-1-1; type: cell-based; conditions: Mus musculus; B104-1-1 cells
[6] = tested on: SK-BR-3 - Human breast carcinoma overexpressing erbB-2 and erbB-3; assay: Growth inhibition assay (antiproliferative), SK-BR-3; type: cell-based; conditions: SK-BR-3 cells
[7] = Table 1, values in nM, read-out: EGF Receptor Tyrosine Kinase Inhibition IC50
[8] = enzyme value repeated in the autophosphorylation table, read-out: EGFR IC50
[9] = SK-BR-3 cells, read-out: SKBR-3 IC50
[10] = Table 1, values printed in μM, read-out: EGF Receptor Tyrosine Kinase Inhibition IC50
[11] = Table 1, values in pM, read-out: EGF Receptor Tyrosine Kinase Inhibition IC50

T2 sequence (P00533 25-1210): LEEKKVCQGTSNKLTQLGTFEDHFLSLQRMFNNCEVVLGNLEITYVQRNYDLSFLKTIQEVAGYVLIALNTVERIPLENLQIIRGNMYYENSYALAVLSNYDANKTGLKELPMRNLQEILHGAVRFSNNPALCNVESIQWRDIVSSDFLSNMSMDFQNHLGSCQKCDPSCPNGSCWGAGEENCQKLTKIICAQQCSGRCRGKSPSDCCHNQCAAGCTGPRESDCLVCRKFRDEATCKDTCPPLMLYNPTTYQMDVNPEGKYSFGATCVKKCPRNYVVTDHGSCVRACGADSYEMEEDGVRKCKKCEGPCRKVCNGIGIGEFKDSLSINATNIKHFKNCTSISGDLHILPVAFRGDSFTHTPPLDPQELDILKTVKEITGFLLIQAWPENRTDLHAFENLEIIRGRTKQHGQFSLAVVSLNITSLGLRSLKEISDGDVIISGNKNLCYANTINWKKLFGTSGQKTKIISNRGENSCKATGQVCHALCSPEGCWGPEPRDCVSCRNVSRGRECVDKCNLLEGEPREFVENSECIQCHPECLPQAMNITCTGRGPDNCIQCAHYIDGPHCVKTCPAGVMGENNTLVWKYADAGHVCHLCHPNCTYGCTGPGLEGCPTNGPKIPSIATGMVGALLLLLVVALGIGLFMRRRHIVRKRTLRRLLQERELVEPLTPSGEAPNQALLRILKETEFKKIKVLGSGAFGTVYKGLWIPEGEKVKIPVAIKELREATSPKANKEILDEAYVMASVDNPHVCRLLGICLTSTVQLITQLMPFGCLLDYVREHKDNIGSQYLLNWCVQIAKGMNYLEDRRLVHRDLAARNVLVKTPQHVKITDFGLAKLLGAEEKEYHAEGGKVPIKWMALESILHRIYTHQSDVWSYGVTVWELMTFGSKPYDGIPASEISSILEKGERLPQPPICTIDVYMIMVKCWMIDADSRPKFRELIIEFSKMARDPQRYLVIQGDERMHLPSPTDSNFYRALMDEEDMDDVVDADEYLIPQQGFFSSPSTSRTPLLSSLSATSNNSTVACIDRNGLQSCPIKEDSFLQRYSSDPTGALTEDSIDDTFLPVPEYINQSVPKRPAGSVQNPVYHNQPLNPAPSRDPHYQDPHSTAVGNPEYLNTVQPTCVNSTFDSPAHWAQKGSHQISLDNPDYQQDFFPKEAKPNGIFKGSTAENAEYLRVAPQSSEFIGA
T1 sequence (P00533 25-1210): as above

Fc1ccc2ncnc(Nc3cccc(Br)c3)c2n1 [Example 4, 4-(3-Bromoanilino)-6-fluoropyrido[3,2-d]pyrimidine]
IC50 [1]: > 1000 nM | IC50 [2, 7]: 225 nM | IC50 [2, 8]: 225 nM | IC50 [3, 9]: > 10000 nM

Nc1ccc2ncnc(Nc3cccc(Br)c3)c2n1 [Example 6, 4-(3-Bromoanilino)-6-aminopyrido[3,2-d]pyrimidine]
IC50 [1]: 53 nM | IC50 [2, 7]: 7.6 nM | IC50 [2, 8]: 7.6 nM | IC50 [3, 9]: 2660 nM

CNc1ccc2ncnc(Nc3cccc(Br)c3)c2n1 [Example 7, 4-(3-Bromoanilino)-6-methylaminopyrido[3,2-d]pyrimidine]
IC50 [1]: 20 nM | IC50 [2, 7]: 3.1 nM | IC50 [2, 8]: 3.1 nM | IC50 [3, 9]: 100 nM

CN(C)c1ccc2ncnc(Nc3cccc(Br)c3)c2n1 [Example 8, 4-(3-Bromoanilino)-6-dimethylaminopyrido[3,2-d]pyrimidine]
IC50 [1]: 32 nM | IC50 [2, 7]: 9.6 nM | IC50 [2, 8]: 9.6 nM | IC50 [3, 9]: 71 nM

Nc1cc2ncnc(Nc3cccc([N+](=O)[O-])c3)c2cn1 [Example 22, 7-Amino-4-(3-nitroanilino)pyrido[4,3-d]pyrimidine]
IC50 [1]: 252 nM | IC50 [2, 7]: 39 nM | IC50 [2, 8]: 39 nM | IC50 [3, 9]: ~1500 nM

Nc1cc2ncnc(Nc3ccccc3C(F)(F)F)c2cn1 [Example 30, 7-Amino-4-(2-trifluoromethylanilino)pyrido[4,3-d]pyrimidine]
IC50 [2, 10]: 10000 nM | melting point: 126 to 130 °C (dec.)

C[C@@H](Nc1ncnc2ccncc12)c1ccccc1 [Example 39, 4-([R]-1-Phenylethylamino)pyrido[4,3-d]pyrimidine]
IC50 [2, 7]: 590 nM | melting point: 138 to 138.5 °C

C[C@@H](Nc1ncnc2cc(N)ncc12)c1ccccc1 [Example 41, 7-Amino-4-([R]-1-phenylethylamino)pyrido[4,3-d]pyrimidine]
IC50 [2, 7]: 220 nM | melting point: 231.8 to 232.1 °C

CC(=O)Nc1cc2ncnc(NCc3ccccc3)c2cn1 [Example 54, 7-Acetylamino-4-benzylaminozpyrido[4,3-d]pyrimidine]
IC50 [2, 7]: 100 nM

c1ccc(Nc2ncnc3cnccc23)cc1 [Example 55, 4-Anilinopyrido[3,4-d]pyrimidine]
IC50 [2, 7]: 400 nM

Brc1cccc(Nc2ncnc3cnccc23)c1 [Example 56, 4-(3-Bromoanilino)pyrido[3,4-d]pyrimidine]
IC50 [2, 7]: 110 nM

Fc1cc2c(Nc3cccc(Br)c3)ncnc2cn1 [Example 57, 4-(3-Bromoanilino)-6-fluoropyrido[3,4-d]pyrimidine]
IC50 [2, 7]: 124 nM

Clc1cc2c(Nc3cccc(Br)c3)ncnc2cn1 [Example 58, 4-(3-Bromoanilino)-6-chloropyrido[3,4-d]pyrimidine]
IC50 [2, 7]: 40 nM

COc1cc2c(Nc3cccc(Br)c3)ncnc2cn1 [Example 59, 4-(3-Bromoanilino)-6-methoxypyrido[3,4-d]pyrimidine]
IC50 [1]: 12 nM | IC50 [2, 7]: 2.6 nM | IC50 [2, 8]: 2.6 nM | IC50 [3, 9]: < 10 nM

CNc1cc2c(Nc3cccc(Br)c3)ncnc2cn1 [Example 60, 4-(3-Bromoanilino)-6-methylaminopyrido[3,4-d]pyrimidine]
IC50 [1]: 13 nM | IC50 [4]: 3000 nM | IC50 [2, 11]: 0.008 nM | IC50 [2, 8]: 0.008 nM | IC50 [3, 9]: < 10 nM | IC50 [5]: 2100 nM | IC50 [6]: 600 nM

CN(C)c1cc2c(Nc3cccc(Br)c3)ncnc2cn1 [Example 61, 4-(3-Bromoanilino)-6-dimethylaminopyrido[3,4-d]pyrimidine]
IC50 [1]: 21 nM | IC50 [4]: 12000 nM | IC50 [2, 11]: 0.006 nM | IC50 [2, 8]: 0.006 nM | IC50 ([3]; read-out: SKBR-3 IC50 nM, SK-BR-3 cells): 39 nM | IC50 [5]: 1000 nM | IC50 [6]: 900 nM

c1ccc(CNc2ncnc3cnccc23)cc1 [Example 62, 4-(Benzylamino)pyrido[3,4-d]pyrimidine]
IC50 [2, 10]: 6100 nM

Brc1cccc(Nc2ncnc3ncccc23)c1 [Example 63, 4-(3-Bromoanilino)pyrido[2,3-d]pyrimidine]
IC50 [2, 10]: 6100 nM

Fc1ccc2c(Nc3cccc(Br)c3)ncnc2n1 [Example 64, 4-(3-Bromoanilino)-7-fluoropyrido[2,3-d]pyrimidine]
IC50 [2, 7]: 11 nM

CN(C)c1ccc2c(Nc3cccc(Br)c3)ncnc2n1 [Example 67, 4-(3-Bromoanilino)-7-dimethylaminopyrido[2,3-d]pyrimidine]
IC50 [2, 10]: 6100 nM

COc1ccc2c(Nc3cccc(Br)c3)ncnc2n1 [Example 68, 4-(3-Bromoanilino)-7-methoxypyrido[2,3-d]pyrimidine]
IC50 [2, 7]: 263 nM

CNc1ncc2c(NCc3ccccc3)ncnc2n1 [Example 69, 4-Benzylamino-7-methylaminopyrimido[4,5-d]pyrimidine]
IC50 [2, 10]: 7000 nM

NNc1ncc2c(NCc3ccccc3)ncnc2n1 [Example 70, 4-Benzylamino-7-hydrazinopyrimido[4,5-d]pyrimidine]
IC50 [2, 7]: 473 nM | IC50 [2, 8]: 11 nM | IC50 [3, 9]: < 10 nM

Brc1cccc(Nc2ncnc3ccsc23)c1 [Example 71, 4-(3-Bromoanilino)thieno[3,2-d]pyrimidine Hydrochloride]
IC50 [2]: 11 nM

c1ccc(CNc2ncnc3ccsc23)cc1 [Example 72, 4-Benzylaminothieno[3,2-d]pyrimidine]
IC50 [2, 7]: 35 nM

Brc1cccc(Nc2ncnc3sccc23)c1 [Example 73, 4-(3-Bromoanilino)thieno[2,3-d]pyrimidine]
IC50 [2]: 36 nM

c1ccc(CNc2nc[nH]c3nccc2-3)cc1 [Example 74, 4-Benzylaminopyrrolo[2,3-d]pyrimidine]
IC50 [2, 10]: 11500 nM | IC50 [2, 8]: 55 nM | IC50 [3, 9]: > 1000 nM

Brc1cccc(Nc2ncnc3[nH]cnc23)c1 [Example 75, N^6-(3-Bromophenyl)adenine]
IC50 [2, 7]: 55 nM

c1ccc(CNc2ncnc3nc[nH]c23)cc1 [Example 76, N^6-Benzyladenine]
IC50 [2, 10]: 10000 nM

COc1ccc(Nc2ncnc3cc(N)ncc23)cc1 [Example 78, 7-Amino-4-(4-methoxyanilino)pyrido[4,3-d]pyrimidine]
IC50 [2, 7]: 670 nM

Brc1cccc(Nc2ncnc3cnc(N4CCCCC4)cc23)c1 [Example 79, 4-(3-Bromoanilino)-6-(piperidin-1-yl)pyrido[3,4-d]pyrimidine]
IC50 [2, 7]: 6.7 nM
